Legend:
[1] = Sulfobutyl ether-β-cyclodextrin inclusion of temsirolimus, appearance of the solution; type: physicochemical; conditions: 1 mg/mL temsirolimus; application amount of sulfobutyl ether-β-cyclodextrin 50%
Description: The druggabilities of sulfobutyl ether-β-cyclodextrin inclusion complex, liposome, and fat emulsion were investigated. The drug loading was fixed at 1 mg/ml for parallel comparisons. The main study protocol and results were summarized as follows:
Formula amount of sulfobutyl ether-β-cyclodextrin was weighed, and dissolved by adding quantum satis water for injection, and setting the volume thereof to 100 mL; formula amount of temsirolimus was weighed, added into the aqueous solution of sulfobutyl ether-β-cyclodextrin, and stirred them at room temperature for 2 h.
Formula amount of sulfobutyl ether-β-cyclodextrin was weighed, dissolved by adding quantum satis water for injection to give an aqueous phase; formula amounts of temsirolimus and organic vehicle (anhydrous ethanol, or propanediol, or PEG4000) were weighed, dissolved by water-bath ultrasound to give an organic phase; the organic phase was poured into the aqueous phase with stirring, and mixed uniformly, and setting the volume thereof to full volume with water for injection, and thus the formulations were obtained.

[2] = Solubility of temsirolimus in common oils for injection (medium chain oil, soybean oil); type: physicochemical; conditions: for Dissolution state: 30 min
Text: Investigation of the solubility of temsirolimus in common oils for injection (medium chain oil, soybean oil)

[3] = background statement; cited from earlier work
mice = conditions: injected via tail vein of mice, compared with Tween 80; cited from earlier work

Molecule | Inclusion of temsirolimus by sulfobutyl ether-β-cyclodextrin [1] | Dissolution state ([2]; Medium chain oil, 10 mg/g, 60° C.) | Dissolution state ([2]; Medium chain oil, 10 mg/g, 70° C.) | Dissolution state ([2]; Medium chain oil, 10 mg/g, 80° C.) | Dissolution state ([2]; Medium chain oil, 20 mg/g, 60° C.) | Dissolution state ([2]; Medium chain oil, 20 mg/g, 70° C.) | Dissolution state ([2]; Medium chain oil, 20 mg/g, 80° C.) | Dissolution state ([2]; Medium chain oil, 30 mg/g, 60° C.) | Dissolution state ([2]; Medium chain oil, 30 mg/g, 70° C.) | Dissolution state ([2]; Medium chain oil, 30 mg/g, 80° C.) | Dissolution state ([2]; Medium chain oil, 40 mg/g, 60° C.) | Dissolution state ([2]; Medium chain oil, 40 mg/g, 70° C.) | Dissolution state ([2]; Medium chain oil, 40 mg/g, 80° C.) | Dissolution state ([2]; Soybean oil, 10 mg/g, 60° C.) | Dissolution state ([2]; Soybean oil, 10 mg/g, 70° C.) | Dissolution state ([2]; Soybean oil, 10 mg/g, 80° C.) | Solubilities in the medium chain oil and soybean oil ([2]; summary in words) | Solubility in water [3] | Acute toxicity (mice)
CO[C@H]1C[C@@H]2CC[C@@H](C)[C@@](O)(O2)C(=O)C(=O)N2CCCC[C@H]2C(=O)O[C@H]([C@H](C)C[C@@H]2CC[C@@H](OC(=O)C(C)(CO)CO)[C@H](OC)C2)CC(=O)[C@H](C)/C=C(\C)[C@@H](O)[C@@H](OC)C(=O)[C@H](C)C[C@H](C)/C=C/C=C/C=C/1C [temsirolimus, 42-bis(hydroxymethyl) propionate of sirolimus] | cannot be included | Severe | Severe | Severe | Severe | Severe | Severe | Severe | Severe | Severe | Severe | Severe | Severe | Severe | Severe | Severe | poor | almost insoluble in water | –
polyethylene glycol stearate 15 | – | – | – | – | – | – | – | – | – | – | – | – | – | – | – | – | – | – | great, even greater than that of Tween 80

— US20180338918A1, “TEMSIROLIMUS LIPOSOME AND PREPARATION METHOD THEREOF” (JIANGSU TASLY DIYI PHARMACEUTICAL CO., LTD., priority 2017, published 2018)
